Measurements reported in article PMC6380545, “Myoinhibitory peptide signaling modulates aversive gustatory learning in Caenorhabditis elegans” (PLoS Genetics, 2019).
Values joined by “and” are separate entries in the source; they are usually repeats but may differ in a detail not shown here. Identical values can stand only once. Starred links: 1 amine or outer side, 2 acyl side, 3 side chain; linkers in the order of their positions; H or OH if unused. Positions of bridges follow the written chain, without caps; N, C: chain ends. Non-standard residues stand in square brackets, D forms with d. Residues, ends and D or L forms follow the SMILES beside them. Chains are numbered I, II in the order given. No end group written: not given here. Actinocin(9to1) = Cc1c2oc3c(C)ccc(C(=O)[*:1])c3nc-2c(C(=O)[*:2])c(N)c1=O; NMeV = CN[C@H](C(=O)O)C(C)C; Sar = CNCC(=O)O

Experiments:
[1] = target: T1, SPRR-2 (Caenorhabditis elegans, UniProt Q93704); assay: Ca2+ luminescence (aequorin) GPCR activation assay, CHO cells expressing SPRR-2; format: cell-based, C. elegans; details: CHO cells expressing SPRR-2, Gα16 and aequorin; 0.1 nM to 100 μM; n ≥ 4; read-out: EC50 values (95% CI) for activation of SPRR-2
T1 construct: host or cells: CHO-WTA11 cells (CHO stably expressing aequorin and Galpha16), transiently transfected with sprr-2/pcDNA3.1
T1 sequence (Q93704 1-451): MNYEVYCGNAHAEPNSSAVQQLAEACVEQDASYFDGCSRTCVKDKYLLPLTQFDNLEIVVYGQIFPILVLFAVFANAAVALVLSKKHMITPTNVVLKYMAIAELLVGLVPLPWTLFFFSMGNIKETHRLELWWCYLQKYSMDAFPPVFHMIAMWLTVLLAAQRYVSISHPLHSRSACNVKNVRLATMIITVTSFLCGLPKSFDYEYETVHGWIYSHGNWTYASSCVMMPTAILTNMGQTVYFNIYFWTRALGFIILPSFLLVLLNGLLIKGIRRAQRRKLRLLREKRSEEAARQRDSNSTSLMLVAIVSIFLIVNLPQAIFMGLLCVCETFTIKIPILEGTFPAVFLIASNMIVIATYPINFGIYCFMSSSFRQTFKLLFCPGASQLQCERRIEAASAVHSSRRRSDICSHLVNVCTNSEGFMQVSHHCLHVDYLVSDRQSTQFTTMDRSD
Text: Fig 2 MIP-1 neuropeptides activate the MIP receptor ortholog SPRR-2. (A) Ca^2+ luminescence assay for measuring GPCR activation. SPRR-2 is expressed in CHO cells that stably co-express the promiscuous Gα16 protein, which couples the receptor’s activation to the Ca^2+ pathway. Intracellular Ca^2+ levels are monitored by the luminescent Ca^2+ indicator aequorin. (B) Domain structure of the C. elegans NLP-38 peptide precursor, henceforward named MIP-1. Gene models predict that the mip-1 gene encodes two protein isoforms (Wormbase WS261), MIP-1A and MIP-1B, which yield five putative MIP-1 peptides. Predicted proprotein convertase sites are indicated in red. Residues belonging to the W-X5-8-Wamide motif, typical of protostomian MIPs, are indicated in brown. (C) MIP-1 peptides dose-dependently activate SPRR-2. Ca^2+responses of CHO cells expressing SPRR-2 are shown relative (%) to the highest value (100% activation) after normalization to the total Ca^2+ response. […] Error bars show SEM (n ≥ 4).
The C. elegans ortholog SPRR-2 of the insect MIP receptor is an orphan GPCR, meaning that its ligand(s) is unknown. To identify its ligand(s), we used a calcium (Ca^2+)-based reporter assay for GPCR activation wherein SPRR-2 is expressed in Chinese Hamster Ovary (CHO) cells (Fig 2A). We challenged these receptor-expressing cells with a synthetic library of ~350 C. elegans neuropeptides. […] These peptides (NLP-38-1 to 5) all have a C-terminal glycine residue (G) indicative of post-translational modification into an amide (-NH2) group in the mature peptides. In addition, these peptides display the C-terminal sequence W-X5-8-Wamide (Fig 2B), which is typical for MIP neuropeptides in other protostomian species. Because of its relationship to protostomian MIP neuropeptide precursors, we refer to the NLP-38 precursor from here onwards as "MIP-1".
The GPCR activation assay was performed as previously described. Briefly, CHO cells stably expressing the luminescent Ca^2+ indicator aequorin and the promiscuous Gα16 protein (CHO-WTA11 cells, PerkinElmer) were transiently transfected with sprr-2/pcDNA3.1, sprr-1/pcDNA3.1, sprr-3/pcDNA3.1, or empty pcDNA3.1 vector. […] After loading, the transfected cells were added at a density of 25,000 cells/well, and luminescence was measured for 30 s at a wavelength of 469 nm. After 30 s, 0.1% triton X-100 (Merck) was added to lyse the cells, resulting in a maximal Ca^2+ response that was measured for 10 s. […]
All behavioral experiments were performed at least in duplicate on at least two independent days. Total size number is indicated in figure legends by N. Statistical Significance was determined when p < 0.05 as indicated in the figure legends. […]

[2] = test system: C. elegans; assay: Salt avoidance learning (taste associative learning, 6 h conditioning with NaCl without food); format: in vivo; details: wild-type, blocker in conditioning plates, cycloheximide 300 μg/mL, actinomycin D 50 μg/mL, 100 mM NaCl without food
Text: We next explored the behavior of sprr-2 mutants in a second established type of gustatory associative learning that depends on food availability and external salt concentration, generally referred to as taste associative learning. […] In contrast, they are averted by NaCl concentrations at which they were starved, a behavior that is called salt avoidance learning (Fig 5A, see Methods). To test taste associative learning of sprr-2 mutants, we fed or starved animals, respectively, for six hours on conditioning plates with 25 mM NaCl (low salt) or 100 mM NaCl (high salt). […] This salt avoidance learning defect could be rescued by reintroducing wild-type copies of sprr-2 under control of its endogenous promoter (Fig 5C). […]
(A) Overview of taste associative learning assays. […] The CI is calculated from the number of worms that migrated toward the lower and upper parts of the gradient. […]
Worms were washed off the cultivation plates with chemotaxis buffer (25 mM KH2PO4/K2HPO4 pH 6.6, 1 mM MgSO4, 1 mM CaCl2, 50 mM NaCl) and transferred to unseeded (salt avoidance learning) or seeded NGM conditioning plates with 100 mM NaCl. […] 30 to 150 worms were placed at the origin and allowed to move freely for 45 minutes after which the CI was calculated as N(higher)—N(lower) / N(all)—N(origin) where N(higher) or N(lower) is the number of animals within a 2-cm radius from the centre of the blocks. […]

[3] = test system: C. elegans; assay: Taste associative learning, 6 h conditioning with NaCl in the presence of food; format: in vivo; details: for CI: food (+): 6 hours conditioning on NGM plates with 100 mM NaCl in the presence of bacterial food, with the drug, gradient chemotaxis assay, each row is one single assay (replicate), Figure S5A; for learning behavior after conditioning with 100 mM NaCl in the presence of food: wild-type, blocker in conditioning plates, cycloheximide 300 μg/mL, actinomycin D 50 μg/mL, n ≥ 8
Protocol: (A) Overview of taste associative learning assays. Synchronized young adult C. elegans are conditioned for six hours on NaCl-containing plates with or without bacterial food. Salt chemotaxis behavior of worms is then tested on NaCl concentration gradients. The CI is calculated from the number of worms that migrated toward the lower and upper parts of the gradient. Worms chemotax to the salt concentrations at which they were fed, but avoid salt concentrations at which they were starved. […] (C) Expression of sprr-2 under its promoter sequence [sprr-2p::sprr-2] rescues the salt avoidance learning defect of sprr-2 mutants. (D) Expression of mip-1 under control of its endogenous promoter sequence [mip-1p::mip-1] rescues the salt avoidance learning defect of mip-1 mutants. (E) A mip-1; sprr-2 double mutant has no additive learning defect. (F) Blocking translation (cycloheximide) or transcription (actinomycin D) during conditioning impairs salt avoidance learning in wild-type animals. (G) Salt avoidance learning of mutants for transcription factors and regulators linked to learning and memory. […] For (B-H), boxplots indicate 25th (lower boundary), 50th (line), and 75th (upper boundary) percentiles. Whiskers show minimum and maximum values. Individual CIs, blue dots. Outliers, black dots. Statistical comparisons by one-way ANOVA and Tukey post-hoc test (n ≥ 6). *p<0.05; **p<0.005; ***p<0.001; n.s., not significant.
Worms were washed off the cultivation plates with chemotaxis buffer (25 mM KH2PO4/K2HPO4 pH 6.6, 1 mM MgSO4, 1 mM CaCl2, 50 mM NaCl) and transferred to unseeded (salt avoidance learning) or seeded NGM conditioning plates with 100 mM NaCl. After 6 hours, animals were washed off and rinsed once with chemotaxis buffer before testing chemotaxis towards NaCl on salt concentration gradients. Salt concentration gradients consisted of a thin layer of 50 mM NaCl 2% agar solution in chemotaxis buffer (background agar, 10 mL was poured into 8.5 cm diameter plates). Additionally, 2% agar in chemotaxis buffer solutions supplemented without 0 mM (lower side) or with 150 mM NaCl (higher side) were prepared by pouring 10 mL agar solution into 35 mm diameter plates. Cylindrical blocks with the diameter of a 15 mL falcon tube were excised from either solution and applied on the background agar 3 cm off centre in opposite directions. Salt concentration gradients were subsequently placed at 20°C for 18 hours before removing the agar chunks prior to use. 30 to 150 worms were placed at the origin and allowed to move freely for 45 minutes after which the CI was calculated as N(higher)—N(lower) / N(all)—N(origin) where N(higher) or N(lower) is the number of animals within a 2-cm radius from the centre of the blocks. Animals within a 1-cm radius from the origin were excluded from the assay. […]

Row | EC50 [1] | Compound | avoidance of high salt concentrations experienced during starvation (salt avoidance learning) [2] | CI [3] | learning behavior after conditioning with 100 mM NaCl in the presence of food [3]
1 | 16.1 nM | SPAQWQRANGLW-NH2 [MIP-1-3] |  |  | 
2 |  | C[C@@H]1C[C@@H]([C@H](O)CC2CC(=O)NC(=O)C2)C(=O)[C@@H](C)C1 [cycloheximide] | significantly weakened | 0.19 and 0.26 and 0.65 and 0.48 and 0.38 and 0.54 and 0.7415 and 0.7427 | does not impair
3 |  | Cc1c2oc3c(C)ccc(C(=O)N[C@@H]4C(=O)N[C@H](C(C)C)C(=O)N5CCC[C@H]5C(=O)N(C)CC(=O)N(C)[C@@H](C(C)C)C(=O)O[C@@H]4C)c3nc-2c(C(=O)N[C@@H]2C(=O)N[C@H](C(C)C)C(=O)N3CCC[C@H]3C(=O)N(C)CC(=O)N(C)[C@@H](C(C)C)C(=O)O[C@@H]2C)c(N)c1=O [actinomycin D] (I: T[dV]P[Sar][NMeV] / II: T[dV]P[Sar][NMeV]; ester I:1-I:C, II:1-II:C; linker I:N-II:N via Actinocin(9to1)) | significantly weakened | 0.5595 and 0.6629 and 0.7488 and 0.5052 and 0.5581 and 0.5185 | does not impair
4 | 14.2 nM | TPQNWNKLNSLW-NH2 [MIP-1-2] |  |  | 
5 | 7.5 nM | VLGWNKAHGLW-NH2 [MIP-1-1] |  |  | 
6 | 8.32 nM | ASDDRVLGWNKAHGLW-NH2 [MIP-1-4] |  |  | 
